Where a name gives a salt, the structure may show the parent alone.
Columns and labels:
[1] = biological target: T1, α2δ-subunit of a calcium channel (Sus scrofa, UniProt A0A287BIN3); test: radioligand binding assay using [3H]-gabapentin; conditions: α2δ-subunit derived from porcine brain tissue
T1 construct: the α2δ-subunit derived from porcine brain tissue was used; from tissue; host or cells: porcine brain tissue
From the text: The ability of compounds of the present invention to bind to the α2δ-subunit of a calcium channel can be determined using the following binding assay.
The radioligand binding assay using [^3H]-gabapentin and the α2δ-subunit derived from porcine brain tissue was used (See, Gee, Nicolas S et at “The novel anticonvulsant drug, gabapentin (Neurontin), binds to the α2δ subunit of a calcium channel”. J. Biol. Chem. (1996), 271(10), 5768-76). Compounds of the invention bind with nanomolar to micromolar affinity for the α2δ protein.

T1 sequence (A0A287BIN3 25-1109): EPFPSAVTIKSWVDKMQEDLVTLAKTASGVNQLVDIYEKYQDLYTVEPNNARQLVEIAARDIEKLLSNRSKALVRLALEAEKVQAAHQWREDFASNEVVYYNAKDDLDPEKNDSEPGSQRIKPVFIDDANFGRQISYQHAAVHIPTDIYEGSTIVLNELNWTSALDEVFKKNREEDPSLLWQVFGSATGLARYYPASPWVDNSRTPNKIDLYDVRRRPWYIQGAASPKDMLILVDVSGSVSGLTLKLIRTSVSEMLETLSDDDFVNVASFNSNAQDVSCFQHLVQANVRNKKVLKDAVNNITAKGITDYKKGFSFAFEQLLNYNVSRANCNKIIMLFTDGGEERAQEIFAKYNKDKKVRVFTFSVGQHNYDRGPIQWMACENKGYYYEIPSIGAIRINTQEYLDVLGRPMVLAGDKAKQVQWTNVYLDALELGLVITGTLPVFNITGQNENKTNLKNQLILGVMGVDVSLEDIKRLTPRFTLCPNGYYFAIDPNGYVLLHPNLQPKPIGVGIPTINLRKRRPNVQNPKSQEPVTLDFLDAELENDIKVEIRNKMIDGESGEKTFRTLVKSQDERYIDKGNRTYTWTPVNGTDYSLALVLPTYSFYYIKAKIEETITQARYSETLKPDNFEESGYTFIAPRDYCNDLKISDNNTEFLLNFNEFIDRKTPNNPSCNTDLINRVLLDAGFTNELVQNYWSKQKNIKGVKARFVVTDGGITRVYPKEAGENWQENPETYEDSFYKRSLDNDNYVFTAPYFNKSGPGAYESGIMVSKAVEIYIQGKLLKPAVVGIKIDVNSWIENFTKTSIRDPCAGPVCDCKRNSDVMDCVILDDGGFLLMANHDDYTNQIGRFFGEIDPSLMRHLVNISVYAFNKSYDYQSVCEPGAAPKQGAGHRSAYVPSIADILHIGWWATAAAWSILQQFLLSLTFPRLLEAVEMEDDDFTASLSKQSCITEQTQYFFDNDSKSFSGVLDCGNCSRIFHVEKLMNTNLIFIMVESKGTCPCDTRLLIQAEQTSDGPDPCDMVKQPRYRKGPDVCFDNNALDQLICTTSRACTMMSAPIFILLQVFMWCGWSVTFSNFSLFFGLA

SMILES	melting point [°C]	affinity to the α2δ protein [1] [nM]
CCCC[C@@H](C)C[C@H](N)CC(=O)O (as salt: hydrochloride)	142.5 to 143.3	
CCC[C@@H](C)C[C@H](CN)C(=O)O (as salt: hydrochloride) [(2R,4R)-2-Aminomethyl-4-methyl-heptanoic acid]	226.3 to 228	
CC(C)CCCC(C)C[C@@H](N)CC(=O)O (stereo partly drawn) [R-3-amino-5,9-dimethyl-decanoic acid]		527
CCC[C@@H](C)C[C@H](CN)C(=O)O [(2R,4R)-2-Aminomethyl-4-methyl-heptanoic acid]		29
CCC[C@@H](C)C[C@H](N)CC(=O)O.Cl	142.5 to 142.7	
CCCC(C)(C)CC(CN)C(=O)O.Cl (stereo not drawn) [2-Aminomethyl-4,4-dimethyl-heptanoic acid hydrochloride]	229.5 to 231	83
CCCC(C)(C)C[C@H](N)CC(=O)O (as salt: hydrochloride)	194.2 to 195.2	
CCC[C@H](C)C[C@H](N)CC(=O)O [(3S,5S)-3-amino-5-methyl-octanoic acid]		1000

— patent publication US7517909B2, “Amino acids with affinity for the α2δ-protein” (Pfizer Inc, priority 2002, dated 2009)
